Where a SMILES comes first, the peptide text is derived from it. The star is where a group is joined. Cbz = O=C(OCc1ccccc1)*; CH2F = FC*
How the values were obtained:
Fas receptor = assay: Fas/CD95 cell surface expression in p53 mutant H630 cell line (Example 11); type: cell-based; conditions: 48 hours; 5-FU 5 μM, CPT-11 5 μM, Oxaliplatin 1 μM
Experimental: (§1) Where flow cytometric analysis was employed in Examples 1 to 5, the following protocol was used. Cells were seeded at 1×10^5 per well of a 6-well tissue culture plate. […] DNA content of harvested cells was evaluated after propidium iodide staining of cells using the EPICS XL Flow Cytometer (Coulter, Miami, Fla.). Where flow cytometric analysis was employed in Examples 6 to 12, the following protocol was used. Cells were seeded at 1×10^5 per well of a 6-well tissue culture plate. […] DNA content of harvested cells was evaluated after propidium iodide staining of cells using the EPICS XL Flow Cytometer (Coulter). A FITC-conjugated monoclonal anti-human Fas antibody (DAKO) was used to determine cell surface expression of the receptor. Cells were collected and washed twice in PBS before incubating in the antibody (1/20 dilution) at 4° C. for 30 mins. A non-reactive FITC-conjugated mouse IgG1 antibody was used as a negative control for each sample. Following incubation the cells were washed twice with PBS containing 2% bovine serum albumin and fixed in 0.3 mL 4% paraformaldehyde. Samples were then analysed on the EPICS XL Flow Cytometer (Coulter).

HCT116p53^+/+ cells = assay: MTT cell viability assay in HCT116 p53 wild-type cells; type: cell-based, human; conditions: for interaction with CH-11 in MTT assay: range of drug concentrations 24 hours, then CH-11 200 ng/ml for 48 hours
Experimental: (§4) Cell Viability Assays. Cell viability was assessed by MTT (3-(4,5-dimethylthiazol-2-yl)-2,5-diphenyltetrazolium bromide, Sigma) assay (12). […] MTT (0.5 mg/ml) was then added to each well and the cells incubated at 37° C. for a further 3 hours. The culture medium was removed and formazan crystals reabsorbed in 200 μL DMSO. Cell viability was determined by reading the absorbance of each well at 570 nm using a 96-well microplate reader (Molecular Devices, Wokingham, England). […] Twenty microlitres (20 μL) MTT (5 mg/ml) was then added to each well and the cells incubated at 37° C. for a further 3 hours. The culture medium was removed and formazan crystals reabsorbed in 200 μL DMSO. Cell viability was determined by reading the absorbance of each well at 570 nm using an ELISA plate reader (Molecular Devices).
(§5) Statistical Analyses. The nature of the interaction between the chemotherapeutic drugs and CH-11 was determined by calculating the R index (RI), which was initially described by Kern and later modified by Romaneli (13, 14). […] Synergism is then defined as an RI of greater than unity. […] To further assess the statistical significance of the interactions, the inventors designed a univariate ANOVA analysis using the SPSS software package. This was an additive model based on the null hypothesis that there was no interaction between the drugs.

Fas/CD95 receptor [1] = assay: Flow cytometry of Fas/CD95 cell surface expression, HCT116 p53 wild-type; type: cell-based, human; conditions: 24 hours
Experimental: as §1

Fas [2] = assay: Western blot of Fas expression in HCT116 p53 wild-type cells; type: cell-based, human; conditions: for induction of Fas/CD95 protein: 5-FU 5 μM, CPT-11 5 μM, Oxaliplatin 1 μM for 48 hours; for Fas expression: RTX after 72 hours, MTA data not shown
Experimental: (§2) Western Blotting. Western blots were performed as previously described (6). The Fas/CD95, Bc1-2 and BID (Santa Cruz Biotechnology, Santa Cruz, Calif.), caspase 8 (Oncogene Research Products, Darmstadt, Germany), p53 (Santa Cruz Biotechnology), and PARP (Pharmingen, BD Biosciences, Oxford, England) mouse monoclonal antibodies were used in conjunction with a horseradish peroxidase (HRP)-conjugated sheep anti-mouse secondary antibody (Amersham, Little Chalfont, Buckinghamshire, England). FasL rabbit polyclonal antibody (Santa Cruz Biotechnology) was used in conjunction with an HRP-conjugated donkey anti-rabbit secondary antibody (Amersham). TS sheep monoclonal primary antibody (Rockland, Gilbertsville, Pa.) was used in conjunction with an HRP-conjugated donkey anti-sheep secondary antibody (Serotech, Oxford, England). Equal loading was assessed using a β-tubulin mouse monoclonal primary antibody (Sigma).

HCT116p53^−/− cells = assay: MTT cell viability assay in HCT116 p53 null cells; type: cell-based, human; conditions: range of drug concentrations 24 hours, then CH-11 200 ng/ml for 48 hours
Experimental: as §4, §5

Fas/CD95 mRNA [3] = assay: Real-time PCR of Fas/CD95 mRNA in HCT116 p53 null cells; type: cell-based, human; conditions: IC60 72hrs doses, 24 and 48 hours
Experimental: (§3) Real-time PCR was performed using a DNA Engine Opticon 2 (MJ Research Incorporated). TheDyNAmo SYBR Green qPCR kit (Finnzymes) was used as the fluoresent dye specific for double-stranded DNA. PCR conditions consisted of an initial denaturation step of 95° C. for 10 minutes, followed by 39 cycles of 94° C. for 10 secs, 55° C. for 20 secs and 72° C. for 20 secs, with a final extension of 72° C. for 10 minutes. A melting curve was included at the end of each run to check the specificity of the amplified product. Experiments were performed in triplicate to ensure reproducibility of the technique. On completion of the run the PCR products were run put on a 2% ethidium bromide agarose gel to confirm that their size matched that of the expected amplicon. Primer sequences were as follows: Fas (Forward) […], Fas (Reverse) […], 18S (Forward) […], 18S (Reverse) […].

procaspase 8, PARP [4] = assay: Western blot of procaspase 8 and PARP in HCT116 p53 null cells; type: cell-based, human; conditions: IC60 dose 24 hours followed by CH-11 200 ng/ml 24 hours
Experimental: as §2

Fas/CD95 mRNA [5] = assay: Real-time PCR of Fas/CD95 mRNA in HCT116 p53 wild-type cells; type: cell-based, human; conditions: IC60 72hrs doses
Experimental: as §3

HCT116 p53 null cells = assay: Propidium iodide flow cytometry, HCT116 p53 null; type: cell-based, human; conditions: drug 24 hours followed by CH-11 50 ng/ml 24 hours
Experimental: as §1, with “Cells” for “Where flow cytometric analysis was employed in Examples 1 to 5, the following protocol was used. Cells”, “Where flow cytometric analysis was employed in Examples 6 to 12, the following protocol was used.” left out

Fas/CD95 receptor [6] = assay: Flow cytometry of Fas/CD95 cell surface expression, HCT116 p53 null; type: cell-based, human; conditions: 24 hours
Experimental: as §1, with “Cells” for “Where flow cytometric analysis was employed in Examples 1 to 5, the following protocol was used. Cells”, “Where flow cytometric analysis was employed in Examples 6 to 12, the following protocol was used.” left out

H630 cells = assay: MTT cell viability assay in p53 mutant H630 cells; type: cell-based; conditions: drug 24 hours, then CH-11 for 48 hours (Example 11)
Experimental: as §4, §5

Fas [7] = assay: Western blot of Fas expression in HCT116 p53 null cells; type: cell-based, human; conditions: CPT-11 5 μM, 48 hours
Experimental: as §2

Fas [8] = assay: Western blot of Fas expression in M7TS90 cells; type: cell-based; conditions: 10 μM 5-FU, 100 nM RTX or 1 μM MTA for 72 hours
Experimental: as §2

procaspase 8, PARP [9] = assay: Western blot of procaspase 8 and PARP in M7TS90-E6 cells; type: cell-based; conditions: p53 null; 5-FU 10 μM, RTX 100 nM, MTA 1 μM, CH-11 250 ng/ml; drugs alone data not shown
Experimental: as §2

Fas [10] = assay: Western blot of Fas expression in RKO cells; type: cell-based; conditions: 48 hours post-treatment; MTA data not shown
Experimental: as §2

RKO cells = assay: MTT cell viability assay in RKO cells; type: cell-based; conditions: data not shown
Fas [11] = assay: Western blot of Fas expression in MCF-7 cells; type: cell-based
Experimental: as §2

MCF-7 cells [12] = assay: MTT cell viability assay in MCF-7 cells; type: cell-based
Experimental: as §4, §5

M7TS90-E6 cells = assay: Flow cytometry sub-G1/G0 apoptotic fraction, M7TS90-E6; type: cell-based; conditions: 96 hours after drug treatment; RTX 100 nM, MTA 1 μM, 5-FU 10 μM
Experimental: as §1

Fas [13] = assay: Western blot of Fas expression in M7TS90-E6 cells; type: cell-based; conditions: 10 μM 5-FU, 100 nM RTX or 1 μM MTA
Experimental: as §2

procaspase 8, BID, PARP = assay: Western blot of procaspase 8, BID and PARP in MCF-7 cells; type: cell-based
Experimental: as §2

FasL = assay: Western blot of FasL expression in MCF-7 cells; type: cell-based; conditions: IC60 doses, 72 hours
Experimental: as §2

MCF-7 cells [14] = assay: Flow cytometry of propidium iodide stained cells, sub-G1/G0 apoptotic fraction, MCF-7; type: cell-based; conditions: 25 nM RTX 72 hours, 250 ng/ml CH-11 24 hours; untreated control ~11%
Experimental: as §1

Fas [15] = assay: Western blot of Fas expression in H630 cells; type: cell-based; conditions: range of concentrations, 48 hours
Experimental: as §2

| Structure (SMILES) | induction of the Fas receptor (Fas receptor) | interaction with CH-11 in MTT assay (HCT116p53^+/+ cells) | induction of Fas/CD95 protein (Fas [2]) | maximum induction of Fas mRNA (Fas/CD95 mRNA [3]) | interaction with CH-11 by propidium iodide staining (HCT116 p53 null cells) | induction of Fas/CD95 receptor cell surface expression (Fas/CD95 receptor [6]) | effect of TS induction on drug-mediated up-regulation of Fas (Fas [8]) | PARP cleavage / processing (procaspase 8, PARP [9]) | Fas expression (Fas [10]) | Fas expression (Fas [2]) | induction of apoptosis by drug alone (M7TS90-E6 cells) | Fas up-regulation (Fas [13]) | further results |
| --- | --- | --- | --- | --- | --- | --- | --- | --- | --- | --- | --- | --- | --- |
| O=C1[O][Pt]2([NH][C@@H]3CCCC[C@H]3[NH]2)[O]C1=O [Oxaliplatin] | Neither 5-FU nor Oxaliplatin treatment for 48 hours caused significant upregulation | significant synergy | significant induction | no induction | – | – | – | – | – | – | – | – | induction of Fas/CD95 receptor cell surface expression (Fas/CD95 receptor [1]): significantly induce expression; interaction with CH-11 in MTT assay (HCT116p53^−/− cells): no synergistic interaction |
| CCc1c2c(nc3ccc(OC(=O)N4CCC(N5CCCCC5)CC4)cc13)-c1cc3c(c(=O)n1C2)COC(=O)[C@]3(O)CC [CPT-11, Irinotecan] | Induction of the Fas receptor | significant synergy | significant induction | 1.9 fold | significant synergy | induction of the Fas/CD95 receptor | – | – | – | – | – | – | PARP cleavage and procaspase 8 activation following the addition of CH-11 (procaspase 8, PARP [4]): PARP cleavage and procaspase 8 activation; fold induction of Fas mRNA (Fas/CD95 mRNA [5]; 24 hours): 7.0 fold; fold induction of Fas mRNA (Fas/CD95 mRNA [5]; 48 hours): 2.5 fold; interaction with CH-11 in MTT assay (H630 cells): significant synergy; induction of Fas/CD95 protein (Fas [7]): induction of Fas/CD95 protein |
| Nc1nc2[nH]cc(CCc3ccc(C(=O)N[C@@H](CCC(=O)O)C(=O)O)cc3)c2c(=O)[nH]1 [MTA, pemetrexed] | – | – | – | – | – | – | abrogated | processed | up-regulated | up-regulated | ~6 fold | did not result in Fas up-regulation | interaction with CH-11 to decrease cell viability (HCT116p53^+/+ cells; data not shown): synergistically interacted; interaction with CH-11 to decrease cell viability (RKO cells): synergistically interacted; Fas expression (Fas [11]; MTA data not shown, CH-11 alone 250 ng/ml, 5-FU alone 5 μM): up-regulated; interaction with CH-11 to decrease cell viability (MCF-7 cells [12]; data not shown): synergistically interacted |
| CC[C@H](C)[C@H](NC(=O)OCc1ccccc1)C(=O)N[C@@H](CCC(=O)OC)C(=O)N[C@H](C(=O)N[C@@H](CC(=O)OC)C(=O)CF)[C@@H](C)O [IETD-fmk] (Cbz-IE(OMe)TD(OMe)-CH2F) | – | – | – | – | – | – | – | – | – | – | – | – | effect on PARP cleavage in 5-FU/CH-11 co-treated cells (procaspase 8, BID, PARP; 10 μM IETD-fmk, 24 hours): inhibited PARP cleavage; effect on processing of procaspase 8 in cells co-treated with 5-FU and CH-11 (procaspase 8, BID, PARP; 10 μM IETD-fmk, 24 hours): blocked processing of procaspase 8 |
| Cc1nc2ccc(CN(C)c3ccc(C(=O)N[C@@H](CCC(=O)O)C(=O)O)s3)cc2c(=O)[nH]1 [RTX, ralitrexed] | – | significant synergy | – | – | to a lesser extent | induction of the Fas/CD95 receptor | abrogated | processed | dramatic Fas up-regulation | dramatically increased | ~8 fold | did not result in Fas up-regulation | activation of caspase 8 and BID (processing of procaspase 8 and full-length BID), words (procaspase 8, BID, PARP; 5 μM 5-FU or 25 nM RTX 72 hours, CH-11 250 ng/ml 24 hours): neither caspase 8, nor its substrate BID were activated; FasL expression (FasL): unaffected; cells in the sub-G1/G0 apoptotic phase (MCF-7 cells [14]): ~16%; Fas expression (Fas [15]): not significantly altered; Fas protein up-regulation (Fas [11]; 72 hours, IC60 dose (5 μM 5-FU, 25 nM RTX)): ~7 fold; IC60 dose (MCF-7 cells [12]; MCF-7): 0.025 µM; induction of Fas mRNA expression (Fas/CD95 mRNA [5]; 24 and 48 hours): significant induction |
